Reference: ChEMBL document CHEMBL1687760, “Secondary integrase resistance mutations found in HIV-1 minority quasispecies in integrase therapy-naive patients have little or no effect on susceptibility to integrase inhibitors” (Antimicrob Agents Chemother, 2010)

Tests used:
Assay type in all cases: functional
[1] = system: Human immunodeficiency virus 1; test: Antiviral activity against Human immunodeficiency virus 1 3B harboring integrase E92G mutant infected in human MT4 cells assessed as inhibition of virus induced cytopathic effect relative to wild type HIV1
[2] = system: Human immunodeficiency virus 1; test: Antiviral activity against Human immunodeficiency virus 1 3B harboring integrase V151I mutant infected in human MT4 cells assessed as inhibition of virus induced cytopathic effect relative to wild type HIV1
[3] = system: Human immunodeficiency virus 1; test: Antiviral activity against Human immunodeficiency virus 1 3B harboring integrase M154I mutant infected in human MT4 cells assessed as inhibition of virus induced cytopathic effect relative to wild type HIV1
[4] = system: Human immunodeficiency virus 1; test: Antiviral activity against Human immunodeficiency virus 1 3B harboring integrase V165I mutant infected in human MT4 cells assessed as inhibition of virus induced cytopathic effect relative to wild type HIV1
[5] = system: Human immunodeficiency virus 1; test: Antiviral activity against Human immunodeficiency virus 1 3B harboring integrase V201I mutant infected in human MT4 cells assessed as inhibition of virus induced cytopathic effect relative to wild type HIV1
[6] = system: Human immunodeficiency virus 1; test: Antiviral activity against Human immunodeficiency virus 1 3B harboring integrase S230N mutant infected in human MT4 cells assessed as inhibition of virus induced cytopathic effect relative to wild type HIV1
[7] = system: Human immunodeficiency virus 1; test: Antiviral activity against Human immunodeficiency virus 1 3B harboring integrase T206S mutant infected in human MT4 cells assessed as inhibition of virus induced cytopathic effect relative to wild type HIV1
[8] = system: Human immunodeficiency virus 1; test: Antiviral activity against Human immunodeficiency virus 1 clone 5 harboring integrase E11D, S17T, S39G, L45V, M50I, I72V, L74I, K111T, S119G, T125A relative to wild type HIV1
[9] = system: Human immunodeficiency virus 1; test: Antiviral activity against Human immunodeficiency virus 1 clone 7 harboring integrase E11D, S17T, L45V, M50T, I72V, L74I, K111T, T125A relative to wild type HIV1
[10] = system: Human immunodeficiency virus 1; test: Antiviral activity against Human immunodeficiency virus 1 clone 8 harboring integrase E11D, S17T, L45V, M50T, S57G, L74I, K111T, S119G, T125A relative to wild type HIV1
[11] = system: Human immunodeficiency virus 1; test: Antiviral activity against Human immunodeficiency virus 1 clone 9 harboring integrase E11D, S17T, L45V, M50T, I72V, L74I, K111T, S119G, relative to wild type HIV1
[12] = system: Human immunodeficiency virus 1; test: Antiviral activity against Human immunodeficiency virus 1 clone 2 harboring integrase S17N, I84I, T124N, T125A, M154I, E157K, S195C mutant gene relative to wild type HIV1
[13] = system: Human immunodeficiency virus 1; test: Antiviral activity against Human immunodeficiency virus 1 clone 4 harboring integrase S17N, S57G, I84I, T124N, T125A, M154I, S195C mutant gene relative to wild type HIV1
[14] = system: Human immunodeficiency virus 1; test: Antiviral activity against Human immunodeficiency virus 1 clone 11 harboring integrase S17N, I84I, T124N, T125A, M154I, S195C mutant gene relative to wild type HIV1
[15] = system: Human immunodeficiency virus 1; test: Antiviral activity against Human immunodeficiency virus 1 clone 17 harboring integrase S17N, T124N, T125A, M154I, S195C mutant gene relative to wild type HIV1
[16] = system: Human immunodeficiency virus 1; test: Antiviral activity against Human immunodeficiency virus 1 clone 2 harboring integrase R20K, A23V, E92G, T124N, I141V, G193E, V201I, T206S, I220V, D279G mutant gene relative to wild type HIV1
[17] = system: Human immunodeficiency virus 1; test: Antiviral activity against Human immunodeficiency virus 1 clone 3 harboring integrase R20K, A23V, T124N, I141V, G193E, V201I, T206S, I220V, M275Vmutant gene relative to wild type HIV1
[18] = system: Human immunodeficiency virus 1; test: Antiviral activity against Human immunodeficiency virus 1 3B harboring integrase E92Q mutant infected in human MT4 cells assessed as inhibition of virus induced cytopathic effect relative to wild type HIV1
[19] = system: Human immunodeficiency virus 1; test: Antiviral activity against Human immunodeficiency virus 1 clone 4 harboring integrase R20K, A23V, T124N, I141V, G193E, V201I, T206S, I220V, D279G mutant gene relative to wild type HIV1
[20] = system: Human immunodeficiency virus 1; test: Antiviral activity against Human immunodeficiency virus 1 clone 13 harboring integrase R20K, A23V, T124N, G193E, V201I, T206S, I268V, I220V mutant gene relative to wild type HIV1
[21] = system: Human immunodeficiency virus 1; test: Antiviral activity against Human immunodeficiency virus 1 clone 15_19 harboring integrase T97A mutant and T97A, Y143R site-directed mutation relative to wild type HIV1
[22] = system: Human immunodeficiency virus 1; test: Antiviral activity against Human immunodeficiency virus 1 3B harboring integrase E157Q mutant infected in human MT4 cells assessed as inhibition of virus induced cytopathic effect relative to wild type HIV1
[23] = system: Human immunodeficiency virus 1; test: Antiviral activity against Human immunodeficiency virus 1 clone 13 harboring integrase E11D, S17T, L45V, M50T, I72V, L74I, K111T, S119G, T125A relative to wild type HIV1
[24] = system: Human immunodeficiency virus 1; test: Antiviral activity against Human immunodeficiency virus 1 3B harboring integrase L74I mutant infected in human MT4 cells assessed as inhibition of virus induced cytopathic effect relative to wild type HIV1

`COc1cc2c(cc1Cc1cccc(Cl)c1F)c(=O)c(C(=O)O)cn2[C@H](CO)C(C)C` [ELVITEGRAVIR] was tested. Which “fold change (FC)” value [1] did it give?
Its value is 13.

And the “fold change (FC)” value [2]?
Its value is 0.6.

What about the “fold change (FC)” value [3] of the same compound?
Its value is 1.

And the “fold change (FC)” value [4]?
Its value is 0.8.

What about the “fold change (FC)” value [5] of the same compound?
The value was 0.9.

What about the “fold change (FC)” value [6] of the same compound?
The value was 0.8.

What about the “fold change (FC)” value [7] of the same compound?
Its value is 1.1.

And the “fold change (FC)” value [8]?
The value was 0.3.

And the “fold change (FC)” value [9]?
The value was 2.7.

And the “fold change (FC)” value [10]?
Its value is 0.8.

And the “fold change (FC)” value [11]?
Its value is 1.

And the “fold change (FC)” value [12]?
The value was 1.1.

And the “fold change (FC)” value [13]?
The value was 1.4.

What about the “fold change (FC)” value [14] of the same compound?
Its value is 0.9.

What about the “fold change (FC)” value [15] of the same compound?
Its value is 1.

What about the “fold change (FC)” value [16] of the same compound?
The value was 13.

What about the “fold change (FC)” value [17] of the same compound?
The value was 0.7.

And the “fold change (FC)” value [18]?
Its value is 20.8.

What about the “fold change (FC)” value [19] of the same compound?
The value was 0.7.

What about the “fold change (FC)” value [20] of the same compound?
Its value is 0.8.

What about the “fold change (FC)” value [21] of the same compound?
Its value is 9.4.

For `Cc1nnc(C(=O)NC(C)(C)c2nc(C(=O)NCc3ccc(F)cc3)c(O)c(=O)n2C)o1` [RALTEGRAVIR], which “fold change (FC)” value [1] is on record?
The value was 1.8.

What about the “fold change (FC)” value [3] of the same compound?
The value was 0.8.

What about the “fold change (FC)” value [22] of the same compound?
The value was 1.2.

And the “fold change (FC)” value [4]?
The value was 0.7.

What about the “fold change (FC)” value [8] of the same compound?
Its value is 0.7.

And the “fold change (FC)” value [9]?
Its value is 1.5.

And the “fold change (FC)” value [23]?
The value was 2.

And the “fold change (FC)” value [12]?
Its value is 1.1.

What about the “fold change (FC)” value [16] of the same compound?
Its value is 1.8.

What about the “fold change (FC)” value [17] of the same compound?
Its value is 0.5.

And the “fold change (FC)” value [18]?
The value was 3.8.

What about the “fold change (FC)” value [24] of the same compound?
Its value is 1.2.

What about the “fold change (FC)” value [19] of the same compound?
Its value is 0.2.

What about the “fold change (FC)” value [20] of the same compound?
The value was 0.8.

And the “fold change (FC)” value [21]?
Its value is 88.2.
